Reference: US5618685A, “Activation of herpes simplex virus protease by kosmotropes” (priority 1995, dated 1997)
Structures can show the parent of a compound that is named as a salt. Where two headings read alike, the source gives them in different places.

Tests used:
HSV-1 protease [1] = biological target: T1, HSV-1 protease (Human herpesvirus 1, UniProt P10210); test: biochemical
Experimental: For experiments examining anion effects, buffer solutions were prepared with the sodium salt of the anion and the pH was adjusted to 7.5 with concentrated HCl where necessary (i.e., citrate, glutamate, malate). An exception was phosphate, where NaH2 PO4 was prepared in the buffer and the pH adjusted upward with NaOH.
Enzyme activity was measured with the peptide substrates […]-amide (SEQ.ID.NO.:2) and […]-amide (SEQ.ID.NO.:1), using HPLC for the separation of products from substrates as described in Darke et al., 1994, supra. The C-terminal cleavage products of enzymatic hydrolysis are SEKFKMW-amide (SEQ.ID.NO.:3) and […]-amide (SEQ.ID.NO.:4) respectively. Quantitation of the C-terminal cleavage product, containing tryptophan, in the HPLC effluent was with a Hewlett-Packard model 1046A fluorescence detector (excitation at 280 nm, emission at 350 nm). […] Reactions were performed at 37° C. in a pH 7.5 buffer containing 52 mM 4-morpholinoethanesulfonic acid (MES), 52 mM 3-(N-tris(hydroxymethyl)methylamino)-2-hyroxy-propanesulfonic acid (TAPSO) and 100 mM diethanolamine, 1 mM EDTA, 1 mM dithiothreitol, 0.1% bovine serum albumin, and the various additives listed in the Tables. Reactions were initiated by the addition of a stock HSV-1 protease solution (0.625 mg/ml) in the above buffer with no additives to a final concentration of 0.025 mg/ml (0.94 μM) and quenched with the addition of 5% H3 PO4. Activity assays comparing various anion and cosolvents effects were conducted with a substrate concentration of 53 μM. Activity in Tables 1 and 2 is expressed as relative to the case where no additive was present in the reaction mixture.

HSV-1 protease [2] = biological target: T1, HSV-1 protease; test: Susceptibility of HSV-1 protease to trypsin proteolysis (SDS-PAGE); format: biochemical, Herpes Simplex Virus type 1; parameters: Autoprocessing of the precursor to the mature 246 amino acid form of the enzyme; made in house; host or cells: E. coli; conditions: trypsin 0.1 mg/ml, 37° C., 60 min; 0.8M citrate
Experimental: HSV-1 protease was incubated for 60 minutes at 37° C. with or without trypsin, either with or without 0.8M sodium citrate present, as described in Example 3. Samples were analyzed with SDS-PAGE (16% gels) and stained with Coomassie brilliant blue. Lanes 1 and 2, no trypsin added; lanes 3 and 4, trypsin added at 0.1 mg/ml. Lanes 1 and 3, no citrate added; lanes 2 and 4, sodium citrate present at 0.8M during incubation. The arrow on the right indicates the position of 27 kDa, undigested HSV-1 protease. Molecular weight markers are in the leftmost lane, with the corresponding molecular weights marked in kDa.
In accordance with this invention, the sensitivity of native HSV-1 protease to trypsin was examined as a function of kosmotrope concentration. Following treatment of the enzyme with trypsin for 60 minutes, SDS-PAGE was performed to qualitatively examine the extent of trypsin digestion of the HSV-1 protease.
Trypsin treatment of the HSV-1 protease (0.15 mg/ml) was performed with 0.1 mg/ml trypsin at 37° C. for 60 min. Trypsin activity s measurements with the fluorogenic substrate BOC-Val-Pro-Arg-7-amino-4-methylcoumarin were performed at 37° C. After trypsin treatment, samples were boiled with SDS gel sample buffer and small volumes of sodium citrate were added to some samples to equalize the extent of band spreading on the gel. […]

[3] = anion (Na+ salt) at ionic strength = 0.8, 37° C., pH 7.5, substrate 53 μM, relative to no additive
[4] = anion (Na+ salt) 0.2M, 37° C., pH 7.5, substrate 53 μM, relative to no additive, 200000 µM
[5] = anion (Na+ salt) 0.8M, 37° C., pH 7.5, substrate 53 μM, relative to no additive, 800000 µM
[6] = pH 7.5, read-out: Relative activity of HSV-1 protease

T1 sequence (P10210 1-247): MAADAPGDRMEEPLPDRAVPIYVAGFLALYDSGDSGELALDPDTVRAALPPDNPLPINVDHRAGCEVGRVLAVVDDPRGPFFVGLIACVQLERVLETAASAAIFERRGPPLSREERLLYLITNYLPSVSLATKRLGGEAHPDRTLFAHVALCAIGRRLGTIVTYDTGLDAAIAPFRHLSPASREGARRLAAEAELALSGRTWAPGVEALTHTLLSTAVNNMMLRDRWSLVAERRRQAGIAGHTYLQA

Q: Which “effect of anion/salt on HSV-1 protease activity (in words)” value (from here on “effect of anion/salt”) (HSV-1 protease [1]) does the source give for `O=C(O)CC(O)(CC(=O)O)C(=O)O` [Citrate, sodium citrate] here?
A: The value was “strong activation”.

Q: What about the “kcat /KM” value (HSV-1 protease [1]) of the same compound?
A: The value was 4500 M⁻¹ s⁻¹.

Q: What about the “amount of peptide cleavage product (SEKFKMW-amide) that accumulated in 60 minutes” value (HSV-1 protease [1]; 0.8M sodium citrate in reaction mixture, HSV-1 protease 40 nM) of the same compound?
A: The value was 100 pmol.

Q: What about the “amount of peptide cleavage product that accumulated in 1 minute” value (HSV-1 protease [1]; 0.8M sodium citrate in reaction mixture, enzyme 0.93 μM) of the same compound?
A: Its value is 100 pmol.

Q: What about the “Relative activity of HSV-1 protease” value (HSV-1 protease [1]; [3]) of the same compound?
A: Its value is 4.16.

Q: And the fold induction at 800000 µM (HSV-1 protease [1]; pH 7.5, read-out: enhancement of the observed hydrolytic rate (increase of activity))?
A: Its fold induction at 800000 µM is 202.

Q: What about the fold induction at 800000 µM (HSV-1 protease [1]; pH 7.5, read-out: increase of the protease activity (catalytic efficiency)) of the same compound?
A: The fold induction at 800000 µM was 860.

Q: And the “susceptibility of HSV-1 protease to trypsin digestion (in words)” value (HSV-1 protease [2])?
A: The value was “loss in susceptibility of HSV-1 protease to trypsin digestion”.

Q: How did the “effect of anion/salt” value (HSV-1 protease [1]) turn out when `Cl` [Cl^-, Chloride] was run?
A: The value was “little effect”.

Q: And the “Relative activity of HSV-1 protease” value (HSV-1 protease [1]; [4])?
A: Its value is 0.96.

Q: And the “Relative activity of HSV-1 protease” value (HSV-1 protease [1]; [5])?
A: Its value is 1.08.

Q: `OC[C@@H](O)[C@@H](O)[C@H](O)[C@@H](O)CO` [Sorbitol] was tested. Which “effect of co-solvent on HSV-1 protease activity (in words)” value (“effect of co-solvent” below) (HSV-1 protease [1]) did it give?
A: Its value is “Activation was observed, albeit to a lesser extent”.

Q: `N[C@H](CCC(=O)O)C(=O)O` [D-glutamate] was tested. Which activity at 200000 µM (HSV-1 protease [1]; [6]) did it give?
A: Its activity at 200000 µM is 290%.

Q: Which results are given for `O=C(O)CC(C(=O)O)C(O)C(=O)O` (centres unmarked) [Isocitrate]?
A: Relative activity of HSV-1 protease (HSV-1 protease [1]; [3]): 3.53; activity at 200000 µM (HSV-1 protease [1]; [6]): 772%

Q: For `N[C@@H](CCC(=O)O)C(=O)O` [L-glutamate], which activity at 200000 µM (HSV-1 protease [1]; [6]) is on record?
A: Its activity at 200000 µM is 245%.

Q: `O=C(O)C[C@H](O)C(=O)O` [L-malate] was tested. Which activity at 200000 µM (HSV-1 protease [1]; [6]) did it give?
A: The activity at 200000 µM was 404%.

Q: `F` [F^-] was tested. Which “effect of anion/salt” value (HSV-1 protease [1]) did it give?
A: Its value is “some activation”.

Q: What about the “Relative activity of HSV-1 protease” value (HSV-1 protease [1]; [4]) of the same compound?
A: Its value is 6.15.

Q: How did the “Relative activity of HSV-1 protease” value (HSV-1 protease [1]; pH 7.5) turn out when `O=C(O)CCC(=O)O` [Succinate] was run?
A: Its value is 6.03.

Q: And the activity at 200000 µM (HSV-1 protease [1]; [6])?
A: The activity at 200000 µM was 397%.

Q: Which results are given for `I` [I^-, iodide]?
A: effect of anion/salt on HSV-1 protease activity (in words) (HSV-1 protease [1]): inhibition; Relative activity of HSV-1 protease (HSV-1 protease [1]; [4]): 0.07; Relative activity of HSV-1 protease (HSV-1 protease [1]; [5]): 0.00; effect of anion/salt on HSV-1 protease activity (in words) (HSV-1 protease [1]; listed as iodide): inhibitory

Q: For `OCCO` [Ethylene glycol], which activity at 2 % (HSV-1 protease [1]; [6]) is on record?
A: The activity at 2 % was 63%.

Q: And the activity at 5 % (HSV-1 protease [1]; [6])?
A: Its activity at 5 % is 67%.

Q: And the activity at 10 % (HSV-1 protease [1]; [6])?
A: The activity at 10 % was 45%.

Q: `CC(=O)O` [CH3 COO^-] was tested. Which activity at 200000 µM (HSV-1 protease [1]; [6]) did it give?
A: Its activity at 200000 µM is 171%.

Q: And the activity at 800000 µM (HSV-1 protease [1]; [6])?
A: Its activity at 800000 µM is 703%.

Q: With `CN(C)C=O` [Dimethyl formamide] as the compound, how does the “effect of co-solvent” value (HSV-1 protease [1]) read?
A: Its value is “strongly inactivating”.

Q: `O=P(O)(O)O` [HPO4^2- /PO4^3-, sodium phosphate] was tested. Which “effect of anion/salt” value (HSV-1 protease [1]) did it give?
A: The value was “strong activation”.

Q: What about the “kcat /KM” value (HSV-1 protease [1]; 0.8M salt present) of the same compound?
A: The value was 2200 M⁻¹ s⁻¹.

Q: And the “Relative activity of HSV-1 protease” value (HSV-1 protease [1]; [4])?
A: Its value is 5.68.

Q: What does the source list for `O=C(O)/C=C(/CC(=O)O)C(=O)O` [cis-Aconitrate]?
A: Relative activity of HSV-1 protease (HSV-1 protease [1]; [3]): 2.40; activity at 200000 µM (HSV-1 protease [1]; [6]): 506%

Q: What does the source list for `[O-][Cl+3]([O-])([O-])O` [ClO4^-, perchlorate]?
A: effect of anion/salt on HSV-1 protease activity (in words) (HSV-1 protease [1]): inhibitory; Relative activity of HSV-1 protease (HSV-1 protease [1]; [4]): 0.06; Relative activity of HSV-1 protease (HSV-1 protease [1]; [5]): 0.00

Q: What does the source list for `CCO` [Ethanol]?
A: effect of co-solvent on HSV-1 protease activity (in words) (HSV-1 protease [1]): strongly inactivating; activity at 2 % (HSV-1 protease [1]; [6]): 27%; activity at 5 % (HSV-1 protease [1]; [6]): 10%; activity at 10 % (HSV-1 protease [1]; [6]): 0%

Q: Which “effect of anion/salt” value (HSV-1 protease [1]) does the source give for `O=S(=O)(O)O` [SO4^2-, sulfate] here?
A: The value was “strong activation”.

Q: What about the “Relative activity of HSV-1 protease” value (HSV-1 protease [1]; [4]) of the same compound?
A: The value was 4.70.

Q: `O=P(O)(O)OP(=O)(O)O` [HP2 O7^3-] was tested. Which “Relative activity of HSV-1 protease” value (HSV-1 protease [1]; [4]) did it give?
A: The value was 7.32.

Q: With `OCC(O)CO` [Glycerol] as the compound, how does the “effect of co-solvent” value (HSV-1 protease [1]) read?
A: Its value is “Activation was observed, albeit to a lesser extent”.

Q: For `C[S+](C)[O-]` [Dimethyl sulfoxide], which inhibition at 2 % (HSV-1 protease [1]; read-out: reduction of HSV protease activity, 2% DMSO with 0.8M sodium citrate present) is on record?
A: Its inhibition at 2 % is 8%.

Q: What about the inhibition at 2 % (HSV-1 protease [1]; read-out: reduction of HSV protease activity, 2% DMSO, no kosmotropic anion) of the same compound?
A: The inhibition at 2 % was 37%.

Q: `O=C(O)C[C@@H](O)C(=O)O` [D-malate] was tested. Which activity at 200000 µM (HSV-1 protease [1]; [6]) did it give?
A: Its activity at 200000 µM is 409%.

Q: `N.N.O=S(=O)(O)O` [(NH4)2 SO4] was tested. Which “effect of anion/salt” value (HSV-1 protease [1]) did it give?
A: Its value is “slightly less activating”.

Q: What does the source list for `[Br-].[K+]` [Br^-, bromide]?
A: Relative activity of HSV-1 protease (HSV-1 protease [1]; pH 7.5, 200000 µM): 0.23; Relative activity of HSV-1 protease (HSV-1 protease [1]; pH 7.5, 800000 µM): 0.07
